In data set [1] the target is T1, Lysine-specific histone demethylase 1A (Homo sapiens, UniProt O60341).
Description: Inhibition of LSD1 in human MV4-11 cells assessed as induction of LY96 mRNA expression incubated for 16 hrs by chemiluminescent method
Data set [2] addresses T1, Lysine-specific histone demethylase 1A. The source holds these as a separate data set.
Data set [3] shares this target. The source holds these as a separate data set.
For data set [4] the target is unchanged. The source holds these as a separate data set.
The test system of data set [5] is Kasumi 1. In words: Growth inhibition on human Kasumi-1 cells measured upto 12 days by Cell Titer-Glo luminescent cell viability assay. The note with it: Kasumi 1, 288 h. The format is functional. (In general: ATP-based viability assays read luminescence as a measure of living cells.)
Data set [6] has as its target T1, Lysine-specific histone demethylase 1A. This is another data set of the same source.
The nature of data set [7]: Metabolic stability in rat liver microsomes assessed as intrinsic clearance. The class given is ADME, Microsome. The conditions noted are these: read-out: CLH.
The nature of data set [8]: Metabolic stability in dog liver microsomes assessed as intrinsic clearance. The format is ADME, Canis lupus familiaris, Microsome. The note with it: read-out: CLH. (Liver microsomes are vesicles of endoplasmic reticulum, rich in cytochrome P450 enzymes.)
Data set [9] is described as follows: Metabolic stability in mouse liver microsomes assessed as intrinsic clearance. The format is ADME, Microsome. The conditions noted are these: read-out: CLH.
Data set [10] in a line: Metabolic stability in human liver microsomes assessed as intrinsic clearance. The class given is ADME, Microsome. The note with it: read-out: CLH.
In data set [11] the target is T2, Amine oxidase [flavin-containing] B (Homo sapiens, UniProt P27338).
T2 sequence (P27338 whole entry): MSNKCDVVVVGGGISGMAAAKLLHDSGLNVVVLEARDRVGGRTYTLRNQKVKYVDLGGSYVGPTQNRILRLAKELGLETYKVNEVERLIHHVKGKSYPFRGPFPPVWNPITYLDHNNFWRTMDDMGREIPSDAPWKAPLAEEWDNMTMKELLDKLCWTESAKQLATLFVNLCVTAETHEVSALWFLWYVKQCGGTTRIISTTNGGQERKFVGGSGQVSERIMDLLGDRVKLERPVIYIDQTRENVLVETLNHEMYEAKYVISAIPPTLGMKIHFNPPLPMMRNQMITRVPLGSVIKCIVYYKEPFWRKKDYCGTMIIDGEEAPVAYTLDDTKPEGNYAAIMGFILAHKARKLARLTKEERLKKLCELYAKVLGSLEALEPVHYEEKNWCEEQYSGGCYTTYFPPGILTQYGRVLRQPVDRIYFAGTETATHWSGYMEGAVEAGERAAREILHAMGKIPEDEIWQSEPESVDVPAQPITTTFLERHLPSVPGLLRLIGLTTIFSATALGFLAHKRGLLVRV
As to the kind of experiment: Inhibition of MAO-B (unknown origin).

Data set [12] in a line: Half life in mouse at 1 mg/kg, iv. The class given is ADME, organism-based. The conditions noted are these: in vivo.
The next data set concerns MV4-11. In words: Growth inhibition on human MV4-11 cells measured upto 12 days by Cell Titer-Glo luminescent cell viability assay. The format is functional. The note with it: MV4-11, 288 h.
The subject of a further data set is SKM-1. In words: Growth inhibition on human SKM1 cells measured upto 12 days by Cell Titer-Glo luminescent cell viability assay. The class given is functional. The conditions noted are these: SKM-1, 288 h.
Data set [13] in a line: Cmax in mouse at 5 mg/kg, po. The format is ADME, organism-based. The note with it: in vivo. Details: dose 5 mg/kg, route oral.
The test system of a further data set is SET-2. In words: Growth inhibition on human SET2 cells measured upto 12 days by Cell Titer-Glo luminescent cell viability assay. The format is functional. The note with it: SET-2, 288 h.
Another data set has as its system MOLM-13. In words: Growth inhibition on human MOLM13 cells measured upto 12 days by Cell Titer-Glo luminescent cell viability assay. The class given is functional. The conditions noted are these: MOLM-13, 288 h.
In data set [14] the target is T3, Amine oxidase [flavin-containing] A (Homo sapiens, UniProt P21397).
T3 sequence (P21397 whole entry): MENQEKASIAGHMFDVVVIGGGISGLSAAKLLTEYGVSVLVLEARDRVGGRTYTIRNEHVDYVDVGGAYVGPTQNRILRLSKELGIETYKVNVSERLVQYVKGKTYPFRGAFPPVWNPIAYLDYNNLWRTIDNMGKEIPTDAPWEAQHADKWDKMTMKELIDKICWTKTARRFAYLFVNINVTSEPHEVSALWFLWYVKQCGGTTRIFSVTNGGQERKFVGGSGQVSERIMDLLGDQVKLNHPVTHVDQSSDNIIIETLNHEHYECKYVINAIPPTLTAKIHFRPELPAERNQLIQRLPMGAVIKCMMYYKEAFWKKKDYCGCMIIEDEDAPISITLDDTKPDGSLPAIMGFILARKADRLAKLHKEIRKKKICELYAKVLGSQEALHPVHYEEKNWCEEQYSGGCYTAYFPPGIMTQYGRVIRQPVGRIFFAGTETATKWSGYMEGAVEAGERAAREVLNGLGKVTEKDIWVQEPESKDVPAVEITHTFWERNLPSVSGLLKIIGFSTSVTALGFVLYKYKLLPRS
As to the kind of experiment: Inhibition of MAO-A (unknown origin).

Data set [15] can be described thus: AUC (0 to infinity) in mouse at 5 mg/kg, po. The format is ADME, organism-based. Details: dose 5 mg/kg, time infinity, route oral. The conditions noted are these: in vivo.
For data set [16], the system named is Kasumi 1. As to the kind of experiment: Antitumor activity against human Kasumi-1 cells xenografted in oral dosed CB17 SCID mouse assessed as tumor growth inhibition administered for 14 days. The class given is functional, organism-based.
For a further data set, the system named is OCI-AML-5. As to the kind of experiment: Growth inhibition on human OCI-AML5 cells measured upto 12 days by Cell Titer-Glo luminescent cell viability assay. The conditions noted are these: OCI-AML-5, 288 h. The class given is functional.
For the next data set, the system named is NOMO-1. In words: Growth inhibition on human NOMO1 cells measured upto 12 days by Cell Titer-Glo luminescent cell viability assay. The class given is functional. The note with it: NOMO-1, 288 h.
In the next data set the test system is Mus musculus. As to the kind of experiment: Induction of LY96 mRNA in CB17-scid mouse xenografted with human Kasumi-1 cells at 0.5 and 1.5 mg/kg, po administered for 14 days. The class given is functional, organism-based.
Data set [17] in a line: Volume of distribution at steady state in mouse at 1 mg/kg, iv. The format is ADME, organism-based. The conditions noted are these: in vivo, read-out: Vdss.
Data set [18] in a line: Clearance in mouse at 1 mg/kg, iv. The format is ADME, organism-based. The note with it: in vivo.
For another data set, the system named is OCI-AML-3. As to the kind of experiment: Growth inhibition on human OCI-AML3 cells measured upto 12 days by Cell Titer-Glo luminescent cell viability assay. The format is functional. The note with it: OCI-AML-3, 288 h.
Data set [19] in a line: Oral bioavailability in mouse at 5 mg/kg. The class given is ADME, organism-based. The conditions noted are these: in vivo.
Data set [20] can be described thus: Toxicity in CB17 SCID mouse xenografted with human Kasumi-1 cells assessed body weight loss at 1.5 mg/kg, po administered for 14 days. The format is organism-based. The note with it: in vivo, 336 h.
A short description of data set [21]: Toxicity in CB17 SCID mouse xenografted with human Kasumi-1 cells assessed body weight loss at 0.5 mg/kg, po administered for 14 days. The note with it: in vivo, 336 h. The class given is organism-based.
The nature of data set [22]: Protein binding in plasma (unknown origin) assessed as parent compound remaining. The class given is ADME, cell-free.

Calls of active or inactive are those of the source. No cut-off for these calls is given here.

Take `CC/C(=C\c1ccccc1)[C@@H]1C[C@H]1N[C@H]1CC[C@H](NCCO)CC1` (racemic): in data set [1], the EC50 (commonly the midpoint of the concentration-response curve) was found to be 6 nM. Also, in data set [2], the 50% inhibitory concentration (IC50) (usually the midpoint of a concentration-inhibition curve) was under 1.8 nM.

As to `O=C(O)c1ccc(CN2CCC(CN[C@@H]3C[C@H]3c3ccccc3)CC2)cc1` [GSK2879552], in data set [3], the Kinact was determined as 0.39 min⁻¹. In data set [1], the midpoint of the response, the EC50, lay at 54 nM. Also, the Ratio in [4] was 680 M⁻¹ s⁻¹. This compound also showed a 50% inhibitory concentration (IC50) in data set [2] of 212 nM. The 50% growth inhibitory concentration (GI50) (commonly the concentration that inhibits growth by half) in the data set on Kasumi 1 [5] came out at 20 nM. The inhibitory constant (Ki) (commonly the dissociation constant of the complex between target and ligand, obtained from inhibition or displacement) in data set [6] was found to be 9.6 nM.

For `CC/C(=C\c1ccccc1)[C@@H]1C[C@H]1NC1CC2(CNC2)C1`, the microsomal CLint amounted to 19 µL/min/mg in data set [7], 14 µL/min/mg in data set [8], 17 µL/min/mg in [9] and 11 µL/min/mg in [10]. This compound had a GI50 with Kasumi 1 [5] of 11 nM.

Take `CC/C(=C\c1ccccc1)[C@@H]1C[C@H]1NC1CC2(C1)CN(C(C)=O)C2`: the microsomal CLint amounted to 48 µL/min/mg in data set [7], 87 µL/min/mg in data set [8], 76 µL/min/mg in data set [9] and 18 µL/min/mg in data set [10]. The same compound displayed a GI50 in the data set on Kasumi 1 [5] of 41 nM.

As for `CC/C(=C\c1ccccc1)[C@@H]1C[C@H]1NC1CC2(C1)CN(CC(F)F)C2`, the microsomal CLint in data set [7] worked out at 175 µL/min/mg; in data set [8], 480 µL/min/mg; in data set [9], 883 µL/min/mg; in data set [10], 133 µL/min/mg. This compound came in with an EC50 in data set [1] of 7 nM. The compound further showed an IC50 in data set [2] of under 3 nM. Also, growth in the data set with Kasumi 1 [5] was halved (GI50) at 110 nM.

`CC/C(=C\c1ccccc1)[C@@H]1C[C@H]1NC1CC2(C1)CN(CCO)C2`: the values for the half-maximal inhibitory concentration (IC50) in [11], in [14] and in [2] were over 80000 nM, over 80000 nM and under 3 nM, respectively. In [12], the half-life (usually the time in which the quantity being followed falls by half) is 25.3 h. For the same compound, the GI50 in the data set on MV4-11 was found to be 5 nM; in the data set on SKM-1, 14 nM; with SET-2, 37 nM; in the data set with MOLM-13 it was 893 nM; in the data set on OCI-AML-5, 332 nM; in the data set with NOMO-1 it was 78 nM. In addition, the GI50 in the data set with OCI-AML-3 came out at 271 nM; in the data set with Kasumi 1 [5] it was 1 nM. The compound also yielded a Kinact in data set [3] of 0.38 min⁻¹. For the same compound, the microsomal CLint amounted to 15 µL/min/mg in data set [7], 41 µL/min/mg in [8], 25 µL/min/mg in [9] and 9 µL/min/mg in data set [10]. Besides, in data set [13], the Cmax (in general, the highest concentration seen after dosing) stood at 40 ng/mL. The AUC(0-inf) (usually total exposure, with the tail of the curve extrapolated) in [15] came to 189 ng·h/mL. The TGI result in the data set on Kasumi 1 [16] is “Dose-dependent effect”. The compound further showed a half-maximal effective concentration (EC50) in [1] of 2 nM. Moreover, in the data set with Mus musculus, the result was Active. Further, the Vd in [17] is 118 L/kg. Also, in data set [4], the Ratio was determined as 1e+06 M⁻¹ s⁻¹. Further, the clearance (commonly a measure of how efficiently the substance is removed, as volume per time) in data set [18] is 162 mL/min/kg. In data set [6], this compound displayed a Ki of 6.1 nM. In data set [19], the bioavailability – broadly, dose-corrected exposure relative to a reference, in per cent – was found to be 59%. Moreover, the Activity entry in data set [20] was “<= 5%”; in data set [21] it was “Non-Toxic”.

`CC/C(=C\c1ccccc1)[C@@H]1C[C@H]1NC1CC2(CCN(CCO)CC2)C1`: the microsomal CLint in [7] was found to be 19 µL/min/mg; in data set [8], 39 µL/min/mg; in data set [9], 28 µL/min/mg; in data set [10] it was 10 µL/min/mg. Also, the EC50 in [1] turned out to be 5 nM. For the same compound, the IC50 in data set [2] was under 3 nM. The compound also showed a concentration for 50% growth inhibition (GI50) in the data set with Kasumi 1 [5] of 1 nM.

As for `C(=C\C1CC1NCC1CCNCC1)/c1ccccc1` (stereo not given), the fraction unbound (commonly the share of the substance not bound to proteins or other matrix) in data set [22] was at most 0.05.

For the compound `CC/C(=C\c1ccccc1)[C@@H]1C[C@H]1NC1CC2(C1)CN(S(C)(=O)=O)C2`, the microsomal CLint is 80 µL/min/mg in [7], 105 µL/min/mg in [8], 812 µL/min/mg in [9] and 67 µL/min/mg in data set [10]. The compound also displayed a GI50 in the data set with Kasumi 1 [5] of 17 nM.

Regarding `CC/C(=C\c1ccccc1)[C@@H]1C[C@H]1NC1CC2(C1)CN(C1COC1)C2`, the microsomal CLint in [7] amounted to 43 µL/min/mg; in [8], 283 µL/min/mg; in data set [9], 85 µL/min/mg; in data set [10], 49 µL/min/mg. Besides, the GI50 in the data set with Kasumi 1 [5] was determined as 1 nM.

Consider `CC/C(=C\c1ccccc1)[C@@H]1C[C@H]1NC1CCN(CCO)CC1`, for which the microsomal CLint turned out to be 27 µL/min/mg in data set [7], 106 µL/min/mg in data set [8], 46 µL/min/mg in data set [9] and 41 µL/min/mg in data set [10]. Further, the 50% effective concentration (EC50) in data set [1] was 4 nM. The compound further came in with an IC50 in data set [2] of under 2.6 nM. In addition, halving of growth in the data set on Kasumi 1 [5] (GI50) required 3 nM.

As for `C/C(=C\c1ccccc1)[C@@H]1C[C@H]1NC1CCNCC1` (racemic), the IC50 in [2] was under 2.8 nM.

Values taken from ChEMBL document CHEMBL4627402, “Design and Synthesis of Styrenylcyclopropylamine LSD1 Inhibitors” (ACS Med Chem Lett, 2020).
